Data: ChEMBL document CHEMBL5537177, “Discovery of Potent Antimalarial Type II Kinase Inhibitors with Selectivity over Human Kinases” (J Med Chem, 2024)
Calls of active or inactive are those of the source. No cut-off for these calls is given here.

Columns and labels:
Ephrin type-A receptor 2 = Ephrin type-A receptor 2 (Homo sapiens, UniProt P29317); experiment: Inhibition of human EphA2 by FRET assay
Plasmodium falciparum [1] = experiment: Antiplasmodial activity against drug-sensitive Plasmodium falciparum 3D7 at ring stage infected in A+ erythrocytes assessed as parasite growth reduction incubated for 72 hrs by SYBR Green I dye based analysis; assay type: functional, organism-based; conditions: 3D7, Erythrocyte
HepG2 = experiment: Cytotoxicity against human HepG2 cells assessed as reduction in cell viability incubated for 48 hrs by MTS assay; assay type: toxicity, cell-based; conditions: hepg2
MCF7 = experiment: Cytotoxicity against human MCF7 cells assessed as reduction in cell viability incubated for 48 hrs by MTS assay; assay type: toxicity, cell-based; conditions: mcf7
[2] = Metabolic stability in mouse liver microsomes assessed as intrinsic clearance; assay type: ADME, Liver cells
[3] = Tmax in mouse at 2 mg/kg, iv; assay type: ADME, organism-based; conditions: in vivo
[4] = Cmax in mouse at 2 mg/kg, iv; assay type: ADME, organism-based; conditions: in vivo
[5] = AUC (infinity) in mouse at 2 mg/kg, iv; assay type: ADME, organism-based; conditions: in vivo
[6] = Volume of distribution at steady state in mouse at 2 mg/kg, iv; assay type: ADME, organism-based; conditions: in vivo, read-out: Vdss
[7] = Half life in mouse at 10 mg/kg, po; assay type: ADME, organism-based; conditions: in vivo
[8] = Tmax in mouse at 10 mg/kg, po; assay type: ADME, organism-based; conditions: in vivo
[9] = AUC (last) in mouse at 10 mg/kg, po; assay type: ADME, organism-based; conditions: in vivo
[10] = AUC (infinity) in mouse at 10 mg/kg, po; assay type: ADME, organism-based; conditions: in vivo
[11] = Clearance in mouse at 10 mg/kg, po; assay type: ADME, organism-based; conditions: in vivo
[12] = Oral bioavailability in mouse at 10 mg/kg; assay type: ADME, organism-based; conditions: in vivo
Plasmodium berghei [13] = experiment: Antimalarial activity against Plasmodium berghei sporozoites expressing luciferase infected in human HepG2-A16-CD81 cells assessed as reduction in parasite growth incubated for 18 hrs; assay type: functional, organism-based; conditions: HepG2-A16-CD81, 18 h
Plasmodium berghei [14] = experiment: Antimalarial activity against […] Plasmodium berghei sporozoites expressing GFP-Luc SMcon infected in Swiss Webster mouse assessed as decrease in recrudescence at 15 to 50 mg/kg, iv pretreated for 6 hrs followed by parasite infection measured after 90 days post-infection by SYBR Green I dye based flow cytometry; assay type: functional, organism-based; conditions: dose 15-50 mg/kg, time 90.25 day
Plasmodium falciparum [15] = experiment: Antimalarial activity against synchronous blood-stage Plasmodium falciparum 3D7 assessed as duration of lag phase at 10 times EC50 treated every 24 hrs for 120 hrs followed by compound washout and subsequent addition of RBCs measured after 21 days by parasite reduction ratio assay; assay type: functional
Plasmodium falciparum [16] = experiment: Antimalarial activity against synchronous blood-stage Plasmodium falciparum 3D7 assessed as log of parasite reduction ratio at 10 times EC50 treated every 24 hrs for 120 hrs followed by compound washout and subsequent addition of RBCs measured after 21 days; assay type: functional
Plasmodium falciparum [17] = experiment: Antimalarial activity against synchronous blood-stage Plasmodium falciparum 3D7 assessed as parasite clearance time at 10 times EC50 treated every 24 hrs for 120 hrs followed by compound washout and subsequent addition of RBCs measured after 21 days by parasite reduction ratio assay; assay type: functional
Plasmodium falciparum [18] = experiment: Antimalarial activity against synchronized Plasmodium falciparum Dd2 assessed as absence of rightward shift of YOYO-1 peak at 5 times EC50 treated 6 hrs post-invasion measured after 54 hrs post-invasion by flow cytometry; assay type: functional, organism-based; conditions: time 48.0 hrs
Plasmodium falciparum [19] = experiment: Antimalarial activity against synchronized Plasmodium falciparum 3D7 assessed as reduction in parasite growth at early asexual stage treated 6 hrs post-invasion measured after 72 hrs by SYBR green I dye based microscopy; assay type: functional, organism-based
Plasmodium falciparum [20] = experiment: Antimalarial activity against synchronized Plasmodium falciparum Dd2 assessed as reduction in parasite growth at early asexual stage treated 16 hrs post-invasion measured after 72 hrs by SYBR green I dye based microscopy; assay type: functional, organism-based
Plasmodium falciparum [21] = experiment: Antimalarial activity against synchronized Plasmodium falciparum Dd2 assessed as reduction in parasite growth at early asexual stage treated 26 hrs post-invasion measured after 72 hrs by SYBR green I dye based microscopy; assay type: functional, organism-based
Plasmodium falciparum [22] = experiment: Antimalarial activity against synchronized Plasmodium falciparum Dd2 assessed as reduction in parasite growth at early asexual stage treated 36 hrs post-invasion measured after 72 hrs by SYBR green I dye based microscopy; assay type: functional, organism-based
Plasmodium falciparum [23] = experiment: (§1) Antimalarial activity against artemisinin-sensitive synchronized early ring stage Plasmodium falciparum IPC 5188 (MRA-1239) clinical isolate assessed as decrease in parasite survival at ring stage at 10 times EC50 treated for 6 hrs followed by compound removal measured after 72 hrs by geimsa staining based microscopy; assay type: functional, organism-based
Plasmodium falciparum [24] = experiment: as §1, with “artemisinin-resistant” for “artemisinin-sensitive”, “5202 (MRA-1240)” for “5188 (MRA-1239)”; assay type: functional, organism-based
Plasmodium falciparum [25] = experiment: as §1, with “48” for “6”; assay type: functional, organism-based
Plasmodium falciparum [26] = experiment: as §1, with “artemisinin/piperaquine-resistant” for “artemisinin-sensitive”, “6261 (MRA-1284)” for “5188 (MRA-1239)”, “48” for “6”; assay type: functional, organism-based
Plasmodium falciparum [27] = experiment: Antimalarial activity against synchronized early ring stage Plasmodium falciparum 3D7 (MRA-152) clinical isolate assessed as decrease in parasite survival at ring stage at 10 times EC50 treated for 48 hrs followed by compound removal measured after 72 hrs by geimsa staining based microscopy; assay type: functional, organism-based
Plasmodium falciparum [28] = experiment: Antimalarial activity against synchronized early ring stage Plasmodium falciparum 3D7 (MRA-152) clinical isolate assessed as decrease in parasite survival at ring stage at 10 times EC50 treated for 6 to 48 hrs followed by compound removal measured after 72 hrs by geimsa staining based microscopy; assay type: functional, organism-based
Plasmodium falciparum [29] = experiment: as §1, with “artemisinin/piperaquine-sensitive” for “artemisinin-sensitive”, “6 to 48” for “6”; assay type: functional, organism-based
Plasmodium falciparum [30] = experiment: Antimalarial activity against patient-derived ring-stage Plasmodium falciparum clinical isolate from Patongo town of Uganda infected in O+ RBCs assessed as reduction in parasitemia incubated for 72 hrs by SYBR green I dye based analysis; assay type: functional, organism-based, RBC; conditions: Erythrocyte
Plasmodium falciparum [31] = experiment: Antimalarial activity against ring-stage Plasmodium falciparum Dd2 infected in O+ RBCs assessed as reduction in parasitemia incubated for 72 hrs by SYBR green I dye based analysis; assay type: functional, organism-based, RBC; conditions: Dd2, Erythrocyte
Plasmodium falciparum [32] = experiment: Antimalarial activity against ring-stage Plasmodium falciparum 3D7 infected in O+ RBCs assessed as reduction in parasitemia incubated for 72 hrs by SYBR green I dye based analysis; assay type: functional, organism-based, RBC; conditions: 3D7, Erythrocyte
Plasmodium falciparum [33] = experiment: Antimalarial activity against Plasmodium falciparum harboring AcAS A597V mutation assessed as reduction in parasitemia incubated for 72 hrs by SYBR green I dye based analysis; assay type: functional, organism-based
Plasmodium falciparum [34] = experiment: Antimalarial activity against Plasmodium falciparum harboring CARL I1139K mutation assessed as reduction in parasitemia incubated for 72 hrs by SYBR green I dye based analysis; assay type: functional, organism-based
Plasmodium falciparum [35] = experiment: Antimalarial activity against Plasmodium falciparum harboring PI4K S1320L mutation assessed as reduction in parasitemia incubated for 72 hrs by SYBR green I dye based analysis; assay type: functional, organism-based
Plasmodium falciparum [36] = experiment: Antimalarial activity in ring-stage Plasmodium falciparum Dd2-B2 infected in human O+ erythrocytes assessed as reduction in parasitemia incubated for 72 hrs by SYBR Green I/ MitoTracker Deep Red dye based flow cytometry; assay type: functional, organism-based; conditions: Dd2-B2, 72 h
Plasmodium falciparum [37] = experiment: Antimalarial activity in blood-stage Plasmodium falciparum Dd2-B2 infected in human O+ erythrocytes assessed as minimum inoculum of resistance at 3 times […] measured for 50 days by blood smear analysis; assay type: functional; conditions: time 50 day

Chain of Ephrin type-A receptor 2 (P29317 whole entry): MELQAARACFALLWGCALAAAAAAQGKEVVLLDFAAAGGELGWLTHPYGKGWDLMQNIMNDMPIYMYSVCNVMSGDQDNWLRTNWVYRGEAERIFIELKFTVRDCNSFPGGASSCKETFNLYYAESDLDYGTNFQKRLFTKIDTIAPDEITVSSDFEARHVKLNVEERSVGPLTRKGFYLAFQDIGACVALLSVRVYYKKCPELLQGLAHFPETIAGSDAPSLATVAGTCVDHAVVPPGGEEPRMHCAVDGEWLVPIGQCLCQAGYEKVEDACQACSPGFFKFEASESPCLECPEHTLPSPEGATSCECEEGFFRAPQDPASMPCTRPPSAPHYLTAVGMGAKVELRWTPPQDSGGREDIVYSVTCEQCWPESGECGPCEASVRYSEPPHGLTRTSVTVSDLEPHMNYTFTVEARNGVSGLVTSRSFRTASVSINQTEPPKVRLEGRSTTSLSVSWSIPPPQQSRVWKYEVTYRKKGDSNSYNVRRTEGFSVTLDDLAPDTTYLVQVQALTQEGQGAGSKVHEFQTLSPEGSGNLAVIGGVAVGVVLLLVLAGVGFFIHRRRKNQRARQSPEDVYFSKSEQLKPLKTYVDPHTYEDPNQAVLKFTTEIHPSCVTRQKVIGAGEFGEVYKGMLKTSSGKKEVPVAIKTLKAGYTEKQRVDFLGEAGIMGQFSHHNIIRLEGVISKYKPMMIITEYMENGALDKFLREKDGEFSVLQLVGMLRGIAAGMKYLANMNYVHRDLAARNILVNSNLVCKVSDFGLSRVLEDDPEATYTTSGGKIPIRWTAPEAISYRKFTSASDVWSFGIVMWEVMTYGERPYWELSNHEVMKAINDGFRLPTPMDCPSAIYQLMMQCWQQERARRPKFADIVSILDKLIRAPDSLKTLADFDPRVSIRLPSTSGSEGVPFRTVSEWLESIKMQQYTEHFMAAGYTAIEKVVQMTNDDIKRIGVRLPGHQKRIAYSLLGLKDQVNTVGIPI

CCN1CCN(Cc2ccc(NC(=O)c3cc(Cl)cc(NC(=O)c4cncc(-c5cccs5)c4)c3)cc2C(F)(F)F)CC1
IC50 (Ephrin type-A receptor 2): > 10000 nM | EC50 (Plasmodium falciparum [1]): 42 nM | EC50 (HepG2): 2590 nM | EC50 (MCF7): 3510 nM | intrinsic clearance [2]: 9 µL/min/mg | Tmax [3]: 4.8 min | Cmax [4]: 11100 ng/mL | AUC(0-inf) [5]: 8160 ng·h/mL | Vd [6]: 0.84 L/kg | half-life [7]: 5.71 h | Tmax [8]: 4.67 h | AUC(0-t) [9]: 866 ng·h/mL | AUC(0-inf) [10]: 1640 ng·h/mL | CL/F [11]: 109 mL/min/kg | bioavailability [12]: 4.8% | EC50 (Plasmodium berghei [13]): 1770 nM | Activity (Plasmodium berghei [14]): Active | Time (Plasmodium falciparum [15]): 0 h | log(activity) (Plasmodium falciparum [16]): 3.75 | T99.9% (Plasmodium falciparum [17]): < 32 h | Activity (Plasmodium falciparum [18]): Active | EC50 (Plasmodium falciparum [19]): 29.6 nM | EC50 (Plasmodium falciparum [20]): 37.2 nM | EC50 (Plasmodium falciparum [21]): 69.7 nM | EC50 (Plasmodium falciparum [22]): 80 nM | Activity (Plasmodium falciparum [23]): inactive | Activity (Plasmodium falciparum [24]): inactive | Activity (Plasmodium falciparum [25]): Active | Activity (Plasmodium falciparum [26]): Active | Activity (Plasmodium falciparum [27]): Active | EC50 (Plasmodium falciparum [28]): 61.1 nM | EC50 (Plasmodium falciparum [29]): 73.7 nM | EC50 (Plasmodium falciparum [30]): 9.2 nM | EC50 (Plasmodium falciparum [31]): 22.9 nM | EC50 (Plasmodium falciparum [32]): 10.2 nM | EC50 (Plasmodium falciparum [33]): 40.5 nM | EC50 (Plasmodium falciparum [34]): 65.8 nM | EC50 (Plasmodium falciparum [35]): 59.2 nM | EC50 (Plasmodium falciparum [36]): 40.6 nM | Activity (Plasmodium falciparum [37]): >7
